Experiments:
Recombinant human DDR2 = biological target: T1, Recombinant human DDR2 (Homo sapiens, UniProt Q16832); experiment: LanthaScreen Eu Kinase Binding Assay, DDR2; details: recombinant human DDR2 (1.75 nM; aa427-855, GST tag), Kinase Tracer 178 10 nM, time-resolved fluorescence, at least two independent replicates; read-out: DDR2 pIC50 (converted)
T1 construct: DDR2 (1.75 nM; aa427-855 containing a GST tag)
T1 sequence (Q16832 427-855): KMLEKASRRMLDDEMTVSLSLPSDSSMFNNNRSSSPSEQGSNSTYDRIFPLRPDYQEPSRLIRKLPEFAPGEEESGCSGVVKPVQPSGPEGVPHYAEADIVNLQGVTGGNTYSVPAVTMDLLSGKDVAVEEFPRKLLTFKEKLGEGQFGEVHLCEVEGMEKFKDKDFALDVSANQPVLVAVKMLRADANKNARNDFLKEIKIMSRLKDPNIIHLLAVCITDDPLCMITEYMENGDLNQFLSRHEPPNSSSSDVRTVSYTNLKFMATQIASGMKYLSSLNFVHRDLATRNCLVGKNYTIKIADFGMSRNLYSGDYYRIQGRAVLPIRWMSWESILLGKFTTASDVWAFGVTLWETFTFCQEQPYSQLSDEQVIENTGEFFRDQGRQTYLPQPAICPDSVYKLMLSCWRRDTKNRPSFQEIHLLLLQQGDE
Experimental: (§1) DDR1 and DDR2 Biochemical Assay Method
(§2) The capacity of compounds to bind to DDR1 and DDR2 was quantified using a LanthaScreen Eu Kinase Binding Assay. Recombinant human DDR1 (2.5 nM; aa440-876 containing a GST tag) and DDR2 (1.75 nM; aa427-855 containing a GST tag) were diluted in assay buffer (50 mM HEPES pH7.3, 10 mM MgCl2, 1 mM EGTA and 0.01% Tween) with various concentrations of compound in a 384-well plate and a volume of 5 uL. After a 30-minute incubation at room temperature, 2.5 uL of Eu-anti GST antibody (diluted to 1 nM in assay buffer) plus Kinase Tracer 178 (diluted in assay buffer to 5 nM for DDR1 and 10 nM for DDR2) were added to the plate. Following 60-minute incubation at room temperature, time-resolved fluorescence was measured on a BMG Labtech PHERAstar plate reader. DMSO (1%) and reference compound (1 μM) were used to generate the Max and Min assay signals, respectively. Data was analysed using a four-parameter logistic model to calculate IC50 values, with at least two independent replicates were performed for each compound.

Recombinant human DDR1 = biological target: T2, Recombinant human DDR1 (Homo sapiens, UniProt Q08345); experiment: LanthaScreen Eu Kinase Binding Assay, DDR1; details: recombinant human DDR1 (2.5 nM; aa440-876, GST tag), Kinase Tracer 178 5 nM, time-resolved fluorescence, at least two independent replicates; read-out: DDR1 pIC50 (converted)
T2 construct: Recombinant human DDR1 (2.5 nM; aa440-876 containing a GST tag)
T2 sequence (Q08345 440-876 isoform Q08345-2): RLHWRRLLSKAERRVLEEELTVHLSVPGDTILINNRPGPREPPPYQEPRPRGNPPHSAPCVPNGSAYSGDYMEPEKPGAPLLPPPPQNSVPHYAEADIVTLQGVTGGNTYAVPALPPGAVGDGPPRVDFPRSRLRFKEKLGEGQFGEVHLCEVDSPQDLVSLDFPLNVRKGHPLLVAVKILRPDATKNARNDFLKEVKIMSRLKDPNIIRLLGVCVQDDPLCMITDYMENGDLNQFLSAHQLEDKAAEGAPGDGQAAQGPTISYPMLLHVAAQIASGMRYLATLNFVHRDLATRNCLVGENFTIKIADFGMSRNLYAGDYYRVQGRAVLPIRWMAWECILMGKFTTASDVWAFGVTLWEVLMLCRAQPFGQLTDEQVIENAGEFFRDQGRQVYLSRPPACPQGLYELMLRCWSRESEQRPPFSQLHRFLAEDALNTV
Experimental: as §1, §2

Compound | IC50 (Recombinant human DDR2) [µM] | IC50 (Recombinant human DDR1) [µM]
COc1ccc(NC(=O)Cn2ccc3cccc(Nc4ccc5c(cnn5C)c4)c3c2=O)cc1 [Example 55, N-(4-methoxyphenyl)-2-[8-[(1-methylindazol-5-yl)amino]-1-oxo-2-isoquinolyl]acetamide] | ≥ 1 | 0.01 to 0.1
Cn1ncc2cc(Nc3cccc4ccn(CC(=O)N5CCC[C@H]5C(F)(F)F)c(=O)c34)ccc21 [Example 49] | 0.01 to 0.1 | < 0.01
Cn1ncc2cc(Nc3cccc4ccn(CC(=O)Nc5cncc(C(F)(F)F)c5)c(=O)c34)cnc21 [Example 99, 2-[8-({1-methyl-1H-pyrazolo[3,4-b]pyridine-5-5-yl}amino)1-oxo-1,2-dihydroisoquinolin-2-yl]-N-[5-(trifluoromethyl)pyridine-3-yl]acetamide] | 0.01 to 0.1 | 0.01 to 0.1
Cn1ncc2cc(Nc3cccc4ccn(CC(=O)Nc5ccc(C(F)(F)F)nc5)c(=O)c34)ccc21 [Example 59, 2-[8-[(1-methylindazol-5-yl)amino]-1-oxo-2-isoquinolyl]-N-[6-(trifluoromethyl)-3-pyridyl]acetamide] | 0.1 to 1 | 0.01 to 0.1
Cn1ncc2cc(Nc3cccc4ccn(CC(=O)NCC(F)(F)F)c(=O)c34)cc(C(N)=O)c21 [Example 125, 1-Methyl-5-[[1-oxo-2-[2-oxo-2-(2,2,2-trifluoroethylamino)ethyl]-8-isoquinolyl]amino]indazole-7-carboxamide] | ≥ 1 | 0.1 to 1
Cn1ncc2cc(Nc3cccc4ccn(CC(=O)N5C6CCC5COC6)c(=O)c34)ccc21 [Example 97, 8-[(1-methyl-1H-indazol-5-yl)amino]-2-(2-{3-oxa-8-azabicyclo[3.2.1]octan-8-yl}-2-oxoethyl)-1,2-dihydroisoquinolin-1-one] | ≥ 1 | 0.1 to 1
C[C@@H](NC(=O)Cn1ccc2cccc(Nc3ccc4c(cnn4C)c3)c2c1=O)C(F)(F)F [Example 20, 2-[8-[(1-methylindazol-5-yl)amino]-1-oxo-2-isoquinolyl]-N-[(1R)-2,2,2-trifluoro-1-methyl-ethyl]acetamide] | 0.1 to 1 | 0.1 to 1
Cc1n[nH]c2cc(Nc3cccc4ccn(CC(=O)Nc5cnoc5)c(=O)c34)ccc12 [Example 158, N-isoxazol-4-yl-2-[8-[(3-methyl-1H-indazol-6-yl)amino]-1-oxo-2-isoquinolyl]acetamide] | 0.01 to 0.1 | 0.01 to 0.1
O=C(Cn1ccc2cccc(Nc3cc(Cl)c4[nH]ncc4c3)c2c1=O)NCC(F)(F)F [Example 52, 2-[8-[(7-chloro-1H-indazol-5-yl)amino]-1-oxo-2-isoquinolyl]-N-(2,2,2-trifluoroethyl) acetamide] | 0.01 to 0.1 | < 0.01
O=C(Cn1ccc2cccc(Nc3ccc4cn[nH]c4c3)c2c1=O)NCC(F)(F)F [Example 2] | ≥ 1 | 0.01 to 0.1
Cn1ncc2cc(Nc3cccc4ccn(CC(=O)N5CCOCC5C(F)(F)F)c(=O)c34)ccc21 (stereo not drawn) [Example 87, 8-[(1-methylindazol-5-yl)amino]-2-[2-oxo-2-[3-(trifluoromethyl)morpholin-4-yl]ethyl]isoquinolin-1-one] | 0.1 to 1 | 0.01 to 0.1
Cn1ncc2cc(Nc3cccc4ccn(CC(=O)NC5CC5)c(=O)c34)ccc21 [Example 17, N-cyclopropyl-2-[8-[(1-methylindazol-5-yl)amino]-1-oxo-2-isoquinolyl]acetamide] | ≥ 1 | 0.1 to 1
C[C@@H]1COC[C@H](C)N1C(=O)Cn1ccc2cccc(Nc3ccc4c(cnn4C)c3)c2c1=O [Example 96, 2-{2-[(3R,5S)-3,5-dimethylmorphin-4-yl]-2-oxoethyl}-8-[(1-methyl-1H-indazol-5-yl)amino]-1,2-dihydroisoquinolin-1-one] | ≥ 1 | 0.1 to 1
Cn1ncc2cc(Nc3cccc4ccn(CC(=O)NCC(F)F)c(=O)c34)ccc21 [Example 10] | 0.1 to 1 | 0.01 to 0.1
CN(C)Cc1cc(NC(=O)Cn2ccc3cccc(Nc4ccc5c(cnn5C)c4)c3c2=O)cc(C(F)(F)F)c1 [Example 154, N-[3-[(dimethylamino)methyl]-5-(trifluoromethyl)phenyl]-2-[8-[(1-methylindazol-5-yl)amino]-1-oxo-2-isoquinolyl]acetamide] | 0.01 to 0.1 | < 0.01
Cn1ncc2cc(Nc3cccc4ccn(CC(=O)NCC5CC5)c(=O)c34)ccc21 [Example 16] | 0.1 to 1 | 0.01 to 0.1
CN(c1ccc2c(cnn2C)c1)c1cccc2ccn(CC(=O)Nc3cccc(C(F)(F)F)c3)c(=O)c12 [Example 144, 2-[8-[methyl-(1-methylindazol-5-yl)amino]-1-oxo-2-isoquinolyl]-N-[3-(trifluoromethyl)phenyl]acetamide] | 0.1 to 1 | 0.01 to 0.1
Cn1ccc(NC(=O)Cn2ccc3cccc(Nc4ccc5c(cnn5C)c4)c3c2=O)n1 [Example 34, 2-[8-[(1-methylindazol-5-yl)amino]-1-oxo-2-isoquinolyl]-N-(1-methylpyrazol-3-yl)acetamide] | ≥ 1 | 0.1 to 1
Cn1ncc2cc(Nc3cccc4ccn(CC(=O)NCC(C)(C)O)c(=O)c34)ccc21 [Example 54, N-(2-hydroxy-2-methyl-propyl)-2-[8-[(1-methylindazol-5-yl)amino]-1-oxo-2-isoquinolyl]acetamide] | ≥ 1 | 0.1 to 1
Cc1ccc(Nc2ccc3c(cnn3C)c2)c2c(=O)n(CC(=O)NCC(F)(F)F)ccc12 [Example 8, 2-[5-methyl-8-[(1-methylindazol-5-yl)amino]-1-oxo-2-isoquinolyl]-N-(2,2,2-trifluoroethyl)acetamide] | ≥ 1 | ≥ 1
Cn1ncc2cc(Nc3cccc4ccn(CC(=O)N5CCC[C@H]5C(F)F)c(=O)c34)ccc21 [Example 131, 2-[2-[(2S)-2-(difluoromethyl)pyrrolidin-1-yl]-2-oxo-ethyl]-8-[(1-methylindazol-5-yl)amino]isoquinolin-1-one] | 0.01 to 0.1 | < 0.01
Cn1ncc2cc(Nc3cccc4ccn(CC(=O)N5CCCC[C@H]5C(F)(F)F)c(=O)c34)ccc21 [Example 61, 8-[(1-methylindazol-5-yl)amino]-2-[2-oxo-2-[(2S)-2-(trifluoromethyl)-1-piperidyl]ethyl]isoquinolin-1-one] | 0.01 to 0.1 | < 0.01
Cc1cc(C)n(C(=O)Cn2ccc3cccc(Nc4ccc5c(cnn5C)c4)c3c2=O)n1 [Example 98, 2-[2-(3,5-dimethyl-1H-pyrazol-1-yl)-2-oxoethyl]-8-[(1-methyl-1H-indazol-5-yl)amino]-1,2-dihydroisoquinolin-1-one] | 0.01 to 0.1 | 0.01 to 0.1
CN(C)Cc1cccc(NC(=O)Cn2ccc3cccc(Nc4ccc5c(cnn5C)c4)c3c2=O)c1 [Example 104, N-{3-[(dimethylamino)methyl]phenyl}-2-{8-[(1-methyl-1H-indazol-5-yl)amino]-1-oxo-1,2-dihydroisoquinolin-2-yl}acetamide] | 0.1 to 1 | 0.01 to 0.1
O=C(Cn1ccc2cccc(Nc3ccc4[nH]ncc4c3)c2c1=O)NCC(F)(F)F [Example 1, 2-[8-(1H-indazol-5-ylamino)-1-oxo-2-isoquinolyl]-N-(2,2,2-trifluoroethyl)acetamide] | ≥ 1 | 0.01 to 0.1
Cc1n[nH]c2cc(Nc3cccc4ccn(CC(=O)Nc5cccc(C(F)(F)F)c5)c(=O)c34)ccc12 [Example 159, 2-[8-[(3-methyl-1H-indazol-6-yl)amino]-1-oxo-2-isoquinolyl]-N-[3-(trifluoromethyl)phenyl]acetamide] | 0.1 to 1 | 0.01 to 0.1
CN1CCN(C(=O)Cn2ccc3cccc(Nc4ccc5c(cnn5C)c4)c3c2=O)CC1 [Example 13, 8-[(1-methylindazol-5-yl)amino]-2-[2-(4-methylpiperazin-1-yl)-2-oxo-ethyl]isoquinolin-1-one] | ≥ 1 | ≥ 1
Cn1ncc2cc(Nc3cccc4ccn(CC(=O)N5CCCCC5)c(=O)c34)ccc21 [Example 93] | 0.1 to 1 | 0.1 to 1
C[C@H](NC(=O)Cn1ccc2cccc(Nc3ccc4c(cnn4C)c3)c2c1=O)C(F)(F)F [Example 19, 2-[8-[(1-methylindazol-5-yl)amino]-1-oxo-2-isoquinolyl]-N-[(1S)-2,2,2-trifluoro-1-methyl-ethyl]acetamide] | 0.01 to 0.1 | < 0.01
Cn1ncc2cc(Nc3cccc4ccn(CC(=O)N5CCOCC5)c(=O)c34)ccc21 [Example 11] | 0.1 to 1 | 0.1 to 1

Reference: patent publication US12692247B2, “Phenyl- and pyridopyrazole derivatives as inhibitors of DDR1” (Redx Pharma Limited, priority 2021, dated 2026)
